Source: article PMC11124822, “Discovery and Anticancer Screening of Novel Oxindole-Based Derivative Bearing Pyridyl Group as Potent and Selective Dual FLT3/CDK2 Kinase Inhibitor” (Pharmaceuticals, 2024)

Tests used:
[1] = system: CCRF-CEM; experiment: NCI-60 antiproliferative screen (SRB); type: cell-based, human; conditions: Homo sapiens; 10 µM single dose, 48 h; CCRF-CEM (Leukemia); read-out: Growth inhibition (%)
[2] = system: RPMI-8226; experiment: NCI-60 antiproliferative screen (SRB); type: cell-based, human; conditions: Homo sapiens; 10 µM single dose, 48 h; RPMI-8226 (Leukemia); read-out: Growth inhibition (%)
[3] = system: EKVX; experiment: NCI-60 antiproliferative screen (SRB); type: cell-based, human; conditions: Homo sapiens; 10 µM single dose, 48 h; EKVX (NSCLC); read-out: Growth inhibition (%)
[4] = system: HOP-62; experiment: NCI-60 antiproliferative screen (SRB); type: cell-based, human; conditions: Homo sapiens; 10 µM single dose, 48 h; HOP-62 (NSCLC); read-out: Growth inhibition (%)
[5] = system: HOP-92; experiment: NCI-60 antiproliferative screen (SRB); type: cell-based, human; conditions: Homo sapiens; 10 µM single dose, 48 h; HOP-92 (NSCLC); read-out: Growth inhibition (%)
[6] = system: NCI-H460; experiment: NCI-60 antiproliferative screen (SRB); type: cell-based, human; conditions: Homo sapiens; 10 µM single dose, 48 h; NCI-H460 (NSCLC); read-out: Growth inhibition (%)
[7] = system: NCI-H522; experiment: NCI-60 antiproliferative screen (SRB); type: cell-based, human; conditions: Homo sapiens; 10 µM single dose, 48 h; NCI-H522 (NSCLC); read-out: Growth inhibition (%)
[8] = system: COLO 205; experiment: NCI-60 antiproliferative screen (SRB); type: cell-based, human; conditions: Homo sapiens; 10 µM single dose, 48 h; COLO 205 (Colon); read-out: Growth inhibition (%)
[9] = system: KM12; experiment: NCI-60 antiproliferative screen (SRB); type: cell-based, human; conditions: Homo sapiens; 10 µM single dose, 48 h; KM12 (Colon); read-out: Growth inhibition (%)
[10] = system: SF-268; experiment: NCI-60 antiproliferative screen (SRB); type: cell-based, human; conditions: Homo sapiens; 10 µM single dose, 48 h; SF-268 (CNS); read-out: Growth inhibition (%)
[11] = system: SNB-19; experiment: NCI-60 antiproliferative screen (SRB); type: cell-based, human; conditions: Homo sapiens; 10 µM single dose, 48 h; SNB-19 (CNS); read-out: Growth inhibition (%)
[12] = system: M14; experiment: NCI-60 antiproliferative screen (SRB); type: cell-based, human; conditions: Homo sapiens; 10 µM single dose, 48 h; M14 (Melanoma); read-out: Growth inhibition (%)
[13] = system: SK-MEL-28; experiment: NCI-60 antiproliferative screen (SRB); type: cell-based, human; conditions: Homo sapiens; 10 µM single dose, 48 h; SK-MEL-28 (Melanoma); read-out: Growth inhibition (%)
[14] = system: SK-MEL-5; experiment: NCI-60 antiproliferative screen (SRB); type: cell-based, human; conditions: Homo sapiens; 10 µM single dose, 48 h; SK-MEL-5 (Melanoma); read-out: Growth inhibition (%)
[15] = system: UACC-257; experiment: NCI-60 antiproliferative screen (SRB); type: cell-based, human; conditions: Homo sapiens; 10 µM single dose, 48 h; UACC-257 (Melanoma); read-out: Growth inhibition (%)
[16] = system: UACC-62; experiment: NCI-60 antiproliferative screen (SRB); type: cell-based, human; conditions: Homo sapiens; 10 µM single dose, 48 h; UACC-62 (Melanoma); read-out: Growth inhibition (%)
[17] = system: IGROV1; experiment: NCI-60 antiproliferative screen (SRB); type: cell-based, human; conditions: Homo sapiens, IGROV-1; 10 µM single dose, 48 h; IGROV1 (Ovarian); read-out: Growth inhibition (%)
[18] = system: OVCAR-5; experiment: NCI-60 antiproliferative screen (SRB); type: cell-based, human; conditions: Homo sapiens; 10 µM single dose, 48 h; OVCAR-5 (Ovarian); read-out: Growth inhibition (%)
[19] = system: NCI/ADR-RES; experiment: NCI-60 antiproliferative screen (SRB); type: cell-based, human; conditions: Homo sapiens; 10 µM single dose, 48 h; NCI/ADR-RES (Ovarian); read-out: Growth inhibition (%)
[20] = system: SK-OV-3; experiment: NCI-60 antiproliferative screen (SRB); type: cell-based, human; conditions: Homo sapiens; 10 µM single dose, 48 h; SK-OV-3 (Ovarian); read-out: Growth inhibition (%)
[21] = system: A498; experiment: NCI-60 antiproliferative screen (SRB); type: cell-based, human; conditions: Homo sapiens; 10 µM single dose, 48 h; A498 (Renal); read-out: Growth inhibition (%)
[22] = system: ACHN; experiment: NCI-60 antiproliferative screen (SRB); type: cell-based, human; conditions: Homo sapiens; 10 µM single dose, 48 h; ACHN (Renal); read-out: Growth inhibition (%)
[23] = system: RXF 393; experiment: NCI-60 antiproliferative screen (SRB); type: cell-based, human; conditions: Homo sapiens; 10 µM single dose, 48 h; RXF 393 (Renal); read-out: Growth inhibition (%)
[24] = system: TK-10; experiment: NCI-60 antiproliferative screen (SRB); type: cell-based, human; conditions: Homo sapiens; 10 µM single dose, 48 h; TK-10 (Renal); read-out: Growth inhibition (%)
[25] = system: UO-31; experiment: NCI-60 antiproliferative screen (SRB); type: cell-based, human; conditions: Homo sapiens; 10 µM single dose, 48 h; UO-31 (Renal); read-out: Growth inhibition (%)
[26] = system: MCF7; experiment: NCI-60 antiproliferative screen (SRB); type: cell-based, human; conditions: Homo sapiens; 10 µM single dose, 48 h; MCF7 (Breast); read-out: Growth inhibition (%)
[27] = system: MDA-MB-231; experiment: NCI-60 antiproliferative screen (SRB); type: cell-based, human; conditions: Homo sapiens; 10 µM single dose, 48 h; MDA-MB-231 (Breast); read-out: Growth inhibition (%)
[28] = system: T-47D; experiment: NCI-60 antiproliferative screen (SRB); type: cell-based, human; conditions: Homo sapiens, T47D; 10 µM single dose, 48 h; T-47D (Breast); read-out: Growth inhibition (%)
[29] = system: SR; experiment: NCI-60 antiproliferative screen (SRB); conditions: Homo sapiens, 48 h, read-out: Growth inhibition (%)
Description: (§1) Anticancer activity was tested against 60 cancer cell lines (NCI-60) after 48h treatments with a single dosage of 10 μM of compounds by using sulforhodamine B assay [39] on the traditional 96-well platform. […] The human cancer cell lines of the NCI-60 panel are grown in RPMI 1640 medium supplemented with 5% FBS (fetal bovine serum) and 2 mM L-glutamine. […] For further analysis of promising compounds, five dose screens were performed against the NCI-60 panel. Drug treatments are performed in 5 doses using 10-fold or ½ log dose dilutions.

[30] = system: OVCAR-4; experiment: NCI-60 antiproliferative screen (SRB); conditions: Homo sapiens, OVCAR-4, 48 h, read-out: Growth inhibition (%)
Description: as §1

| SMILES | inhibition at 10 µM [1] | inhibition at 10 µM [2] | inhibition at 10 µM [3] | inhibition at 10 µM [4] | inhibition at 10 µM [5] | inhibition at 10 µM [6] | inhibition at 10 µM [7] | inhibition at 10 µM [8] | inhibition at 10 µM [9] | inhibition at 10 µM [10] | inhibition at 10 µM [11] | inhibition at 10 µM [12] | inhibition at 10 µM [13] | inhibition at 10 µM [14] | inhibition at 10 µM [15] | inhibition at 10 µM [16] | inhibition at 10 µM [17] | inhibition at 10 µM [18] | inhibition at 10 µM [19] | inhibition at 10 µM [20] | further results |
| --- | --- | --- | --- | --- | --- | --- | --- | --- | --- | --- | --- | --- | --- | --- | --- | --- | --- | --- | --- | --- | --- |
| O=C1Nc2ccccc2C1=Cc1ccc(OCc2ccncc2)cc1 (mixture of isomers) [Compound 5m, (E/Z)-3-[4-(Pyridin-4-ylmethoxy)benzylidene] indolin-2-one] | 40.5% | 71.5% | 63.5% | 23% | 40.2% | 40.5% | 32.7% | 38.3% | 66.3% | 22.7% | 43.1% | 23.7% | -4.73% | 90% | 35.8% | 31.1% | 25.4% | -33.2% | 61.8% | 9.38% | inhibition at 10 µM [21]: 2.17%; inhibition at 10 µM [22]: 24.1%; inhibition at 10 µM [23]: 43.9%; inhibition at 10 µM [24]: 17.9%; inhibition at 10 µM [25]: 44.7%; inhibition at 10 µM [26]: 71.6%; inhibition at 10 µM [27]: 16.6%; inhibition at 10 µM [28]: 65.1%; melting point: 238 to 240 °C; inhibition at 10 µM [29]: 73.3%; inhibition at 10 µM [30]: 42.7% |
| O=C1Nc2ccc(F)cc2C1=Cc1ccc(OCc2ccncc2)cc1 (mixture of isomers) [Compound 5n, (E/Z)-5-Fluoro-3-[4-(pyridin-4-ylmethoxy)benzylidene] indolin-2-one] | 40.6% | 64.5% | 52.2% | 17% | 36.9% | 44.4% | 82% | 22.1% | 69.8% | 38.8% | 60.5% | 32.5% | -9.39% | 93.1% | 23.4% | 28.4% | 64.7% | -27.6% | 74.2% | 13.7% | inhibition at 10 µM [21]: 12.9%; inhibition at 10 µM [22]: 70.3%; inhibition at 10 µM [23]: 47.6%; inhibition at 10 µM [24]: 29.9%; inhibition at 10 µM [25]: 54.8%; inhibition at 10 µM [26]: 91.8%; inhibition at 10 µM [27]: 20.7%; inhibition at 10 µM [28]: 64.3%; melting point: 233 to 235 °C; inhibition at 10 µM [29]: 85.4%; inhibition at 10 µM [30]: 43.4% |
